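1) Cells in 96-well plates. 2) Compound, 48 h, 5 concentrations. 3) Linear interpolation between surrounding doses. 4) Unreached endpoint = highest concentration. GI50: concentration for 50% inhibition of growth. Definition used: TGI = concentration required for complete inhibition of growth.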
Assays:
Assay in all cases: NCI-60 cell line screen, 48 h
[1] = system: A549 NSCLC
[2] = system: SK-MEL-28 melanoma
[3] = system: U251 CNS
[4] = system: SK-OV-3 ovarian
[5] = system: 786-0 renal
[6] = system: LOX IMVI melanoma
[7] = system: UO-31 renal
[8] = system: SF-539 CNS
[9] = system: IGROV1 ovarian
[10] = system: RXF 393 renal
[11] = system: HCT-116 colon
[12] = system: MDA-MB-435
[13] = system: OVCAR-8 ovarian
[14] = system: SK-MEL-2 melanoma
[15] = system: HL-60(TB) leukemia
[16] = system: NCI-H522 lung
[17] = system: SF-295 CNS
[18] = system: UACC-257 melanoma
[19] = system: OVCAR-3 ovarian
[20] = system: MOLT-4 leukemia
[21] = system: CCRF-CEM leukemia
[22] = system: ACHN renal
[23] = system: COLO 205 colon
[24] = system: HT29 colon
[25] = system: MALME-3M melanoma
[26] = system: A498 renal
[27] = system: NCI-H226 lung
[28] = system: NCI-H23 lung
[29] = system: SF-268 CNS
[30] = system: KM12 colon
[31] = system: M14 melanoma
[32] = system: K-562 leukemia
[33] = system: SNB-19 CNS
[34] = system: HOP-92 NSCLC
[35] = system: HCT-15 colon
[36] = system: NCI/ADR-RES ovarian
[37] = system: SK-MEL-5 melanoma
[38] = system: T-47D breast
[39] = system: MCF7 breast
[40] = system: SN12C renal
[41] = system: RPMI-8226 leukemia
[42] = system: HOP-62 NSCLC
[43] = system: BT-549 breast
[44] = system: OVCAR-5 ovarian
[45] = system: MDA-MB-231 breast
[46] = system: SNB-75 CNS
[47] = system: HCC-2998 colon
[48] = system: DU-145 prostate
[49] = system: UACC-62 melanoma
[50] = system: TK-10 renal
[51] = system: OVCAR-4 ovarian
[52] = system: SW-620 colon
[53] = system: CAKI-1 renal
[54] = system: PC-3 prostate
[55] = system: NCI-H460 lung
[56] = system: HS 578T breast
[57] = system: SR leukemia

Question: Which results are given for `COc1cc(OC)c(/C=C/c2ccc3ccccc3[n+]2C)c(OC)c1`?
Answer: GI50 [1]: 748 nM; TGI [1]: 13.9 µM; GI50 [2]: 891 nM; TGI [2]: 3.62 µM; GI50 [3]: 323 nM; TGI [3]: 8.97 µM; GI50 [4]: 1370 nM; TGI [4]: 26 µM; GI50 [5]: 3.16 µM; TGI [5]: 16.8 µM; GI50 [6]: 1330 nM; TGI [6]: 3.99 µM; GI50 [7]: 6.14 µM; TGI [7]: 54 µM; GI50 [8]: 422 nM; TGI [8]: 5.78 µM; GI50 [9]: 1210 nM; TGI [9]: 13.6 µM; GI50 [10]: 2060 nM; TGI [10]: 11.7 µM; GI50 [11]: 392 nM; TGI [11]: 11.7 µM; GI50 [12]: 342 nM; TGI [12]: 1530 nM; GI50 [13]: 507 nM; TGI [13]: 6.48 µM; GI50 [14]: 1130 nM; TGI [14]: 3.06 µM; GI50 [15]: 363 nM; TGI [15]: 2920 nM; GI50 [16]: 1140 nM; TGI [16]: 6.25 µM; GI50 [17]: 549 nM; TGI [17]: 4.25 µM; GI50 [18]: 490 nM; TGI [18]: 3.19 µM; GI50 [19]: 560 nM; TGI [19]: 3.9 µM; GI50 [20]: 1350 nM; TGI [20]: 4.77 µM; GI50 [21]: 697 nM; TGI [21]: 6.49 µM; GI50 [22]: 4.32 µM; TGI [22]: > 75.5 µM; GI50 [23]: 208 nM; TGI [23]: 465 nM; GI50 [24]: 280 nM; TGI [24]: 1570 nM; GI50 [25]: 691 nM; TGI [25]: 5.38 µM; GI50 [26]: 535 nM; TGI [26]: 5.42 µM; GI50 [27]: 1420 nM; TGI [27]: 18.5 µM; GI50 [28]: 686 nM; TGI [28]: 12.2 µM; GI50 [29]: 501 nM; TGI [29]: 7.61 µM; GI50 [30]: 322 nM; TGI [30]: 1990 nM; GI50 [31]: 1220 nM; TGI [31]: 5.01 µM; GI50 [32]: 271 nM; TGI [32]: 20.9 µM; GI50 [33]: 375 nM; TGI [33]: 14.8 µM; GI50 [34]: 951 nM; TGI [34]: 4.51 µM; GI50 [35]: 12.8 µM; TGI [35]: > 100 µM; GI50 [36]: > 66.4 µM; TGI [36]: > 100 µM; GI50 [37]: 567 nM; TGI [37]: 1950 nM; GI50 [38]: 294 nM; TGI [38]: 2830 nM; GI50 [39]: 841 nM; TGI [39]: 10.6 µM; GI50 [40]: 360 nM; TGI [40]: 16.9 µM; GI50 [41]: 281 nM; TGI [41]: 2240 nM; GI50 [42]: 1130 nM; TGI [42]: 12.1 µM; GI50 [43]: 401 nM; TGI [43]: 7.3 µM; GI50 [44]: 3.09 µM; TGI [44]: 25.2 µM; GI50 [45]: 1760 nM; TGI [45]: 12.1 µM; GI50 [46]: 586 nM; TGI [46]: 12.4 µM; GI50 [47]: 811 nM; TGI [47]: 5.6 µM; GI50 [48]: 944 nM; TGI [48]: 15.3 µM; GI50 [49]: 1130 nM; TGI [49]: 3.08 µM; GI50 [50]: 1910 nM; TGI [50]: 6.93 µM; GI50 [51]: 659 nM; TGI [51]: 15.8 µM; GI50 [52]: 902 nM; TGI [52]: 11.3 µM; GI50 [53]: 8.55 µM; TGI [53]: > 49.2 µM; GI50 [54]: 1820 nM; TGI [54]: 17.3 µM; GI50 [55]: 577 nM; TGI [55]: 2720 nM; GI50 [56]: 638 nM; TGI [56]: 19.3 µM; GI50 [57]: 350 nM; TGI [57]: 2680 nM
